Data on 3 compounds can be found in patent US7553844B2 (Jarrow Formulas, Inc., priority 2003, dated 2009).

The structures appear in SMILES notation.

Broadly, the EC50 is the midpoint of the concentration-response curve.

In one experiment the test system is primary HIV-1 isolates. It counts as cell-based. Conditions: 1 μM CQ; data not shown. The source says:
(§1) Laboratory-adapted HIV-1IIIB and HIV-2CBL/20 strans, the primary isolates HIV-1UG3 (Clade A, R5) and HIV-1VI 829 (Clade C, R5), both obtained from antiretroviral-naive subjects were used. These viruses are fully described in the paper by Savarino A. et al. referenced above. The HIV-1PAVIA12 isolate was also used. It was donated by Dr. Maurizia Debiaggi, University of Pavia, Italy, who also performed its genotypic analysis. It belongs to Clade B and was isolated from an individual with HAART failure. […] Viral stocks were titrated biologically by the 50% endpoint dilution method, using MT-2 cells (laboratory strains) or PHA-activated peripheral blood mononuclear cells (PBMC) (primary isolates).
(§2) In acute infection assays, the appropriate cell types were incubated at 37° C. for 2 h with the viral stock suspensions at a multiplicity of infection (MOI) of approximately 0.1, unless otherwise specified. After three washes, cells were incubated in fresh culture medium for 7 days at 37° C., and cell-free supernatants at different intervals post-infection were harvested for ELISA measurement of HIV-1 p24 (NEN Life Science Prod., Boston Mass.) or HIV-2 p27 (Coulter, Hialeah, Fla.) (26, 33).
(§3) Tests were conducted to evaluate the concentrations of each drug in the different combinations that produced 90% inhibition of HIV-1 replication. For each drug combination, the FIC was determined. […]

A further experiment has as its system UG3 (HIV-1 Clade A). The experiment in a line: infection of PBMC with primary isolate UG3, p24. In kind it is cell-based. Conditions: without CQ.
Source text: as §1, §2, §3

For the next experiment, the system named is HIV-1 IIIB. The experiment in a line: acute infection assay, HIV-1 p24 ELISA, MT-4 cells. In kind it is cell-based. The conditions noted are these: Human immunodeficiency virus 1, MT4; HIV-1 IIIB-infected MT-4 cells; data not shown.
Source text: as §1, §2
A fractional inhibitory concentration (FIC) was then calculated as drug EC90 of drug A in combination with drug 2/EC90 of drug B alone. The effect was considered to be synergistic when the sum of FICs was ≦0.5. […]
On the technique in general: In an ELISA, binding on a coated surface is turned into a signal by an enzyme label.

In experiment [1] the test system is CQ-resistant P. falciparum strain (W2). The experiment in a line: P. falciparum LDH activity, CQ with or without PI, W2. It counts as cell-based, Plasmodium falciparum. On the procedure: (§4) A fractional inhibitory concentration (FIC) was then calculated as drug EC90 of drug A in combination with drug 2/EC90 of drug B alone. The effect was considered to be synergistic when the sum of FICs was ≦0.5.
(§5) This assay is based on the principle that plasmodial lactate dehydrogenase (LDH) can use 3-acetylpyridine NAD (APAD) as a coenzyme, which is converted to APADH during lactate oxidation. All samples for LDH determination were measured spectrophotometrically at 650 nm. For these measurements, 10-50 μl of the malaria sample was added to the Mastat reagent, which is an optimized formulation for parasite LDH detection. The samples consisted of malaria cultures. All aliquots were added to 0.2 ml of the Malstat reagent using a 96-well microtiter plate format. The formation of APADH was determined at 650 nm using a multiwavelength plate reader. Each well of a test microtiter plate was automatically measured at 30-sec. intervals, and the individual data points were stored and subsequently plotted with a software program. The spectrophotometric assessment of LDH activity was facilitated by adding NBT (0.24 mM) and PES (0.033 mM) to Malstat reagent. As APADH is formed, the NBT is reduced and forms a formazan product that is blue and can be detected visually and measured at 650 nm. This assay is specific for parasitic LDH and is not influenced by the human enzyme. […]

Experiment [2] concerns CQ-sensitive P. falciparum strain (3D7). In words: P. falciparum LDH activity, CQ with or without PI, 3D7. In kind it is cell-based, Plasmodium falciparum. On the procedure:
as §4, §5

For experiment [3], the system named is P. falciparum (3D7, Ibginovia). In words: P. falciparum LDH activity, protease inhibitors alone. In kind it is cell-based, Plasmodium falciparum. Conditions: PI alone, 48 h, clinically observable concentrations. On the procedure: Results are shown as a percentage of control values.
Ibginovia is an isolate obtained at the Istituto Superiore di Sanità, Rome, Italy, positive for mutations in the codons K76 and A220 of the pfcrt gene conferring CQ resistance. The parasite's origin is Nigeria. All parasites were maintained in vitro in RPMI 1640 medium to which was added human type A red blood cells (RBC) and 10% heat-inactivated human serum. All cultures were placed in a humidified incubator at 37° C. with a gas-controlled environment of 3% O2, 6% CO2, and 91% N2 and fed according to established procedures.
as §5, with “The samples consisted of malaria cultures. All aliquots were added to 0.2 ml of the Malstat reagent using a 96-well microtiter plate format.” left out, “The spectrophotometric assessment of LDH activity was facilitated by adding NBT (0.24 mM) and PES (0.033 mM) to Malstat reagent.” left out, “nm.” for “nm. This assay is specific for parasitic LDH and is not influenced by the human enzyme.”

Experiment [4] deals with CQ-resistant P. falciparum field isolate (Ibginovia). In words: P. falciparum LDH activity, CQ with or without PI, Ibginovia. It counts as cell-based, Plasmodium falciparum. The conditions noted are these: PI with CQ, 48 h; PI at sub-optimally inhibiting concentration. The source says:
In order to illustrate typical results, data are shown as a mean ±S.D. optical density (O.D.) at the end of a reaction mediated by plasmodial lactate dehydrogenase (LDH), as described in the Materials and Methods of the EXAMPLES section. The O.D. values are directly proportional to P. falciparum cell viability.
Ibginovia is an isolate obtained at the Istituto Superiore di Sanità, Rome, Italy, positive for mutations in the codons K76 and A220 of the pfcrt gene conferring CQ resistance. The parasite's origin is Nigeria. All parasites were maintained in vitro in RPMI 1640 medium to which was added human type A red blood cells (RBC) and 10% heat-inactivated human serum. […]
This assay is based on the principle that plasmodial lactate dehydrogenase (LDH) can use 3-acetylpyridine NAD (APAD) as a coenzyme, which is converted to APADH during lactate oxidation. All samples for LDH determination were measured spectrophotometrically at 650 nm. […] The formation of APADH was determined at 650 nm using a multiwavelength plate reader. Each well of a test microtiter plate was automatically measured at 30-sec. intervals, and the individual data points were stored and subsequently plotted with a software program. […] As APADH is formed, the NBT is reduced and forms a formazan product that is blue and can be detected visually and measured at 650 nm. […]

In a further experiment the test system is P. berghei. In words: murine malaria model, Balb/c mice infected with P. berghei. In kind it is in vivo, Plasmodium berghei. The conditions noted are these: 50 or 150 mg/kg intragastrically. On the procedure:
FIG. 6. Antimalarial effects of RTV in mice infected with Plasmodium berghei.
FIG. 6A. Effects of RTV (50 mg/kg) on P. berghei growth in Balb/c mice. Results are shown as an average ±S.D. of the percentage of parasitized red blood cells at different days of follow-up.
FIG. 6B. Effects of RTV (50 mg/kg) on survival of mice infected with P. berghei. Results are shown as Kaplan Meyer curves and the P value for difference in survival is reported.
FIG. 6C. Effects of RTV (150 mg/kg) on P. berghei growth in Balb/c mice. Results are shown as an average ±S.D. of the percentage of parasitized red blood cells at different days of follow-up.
FIG. 6D. Effects of RTV (150 mg/kg) on survival of mice infected with P. berghei. Results are shown as Kaplan Meyer curves and the P value for difference in survival is reported.
Parasitemia was determined by light microscopy using Giemsa-stained thin smears and with fluorescence microscopy using the dye benzothiocarboxypurine.
To evaluate the effects of a PI in an animal model of malaria, Balb/c mice were inoculated intraperitoneally with P. berghei and then divided into three groups: 1) mock-treated with an intragastric inoculation of phosphate-buffer saline (PBS), 2) treated intragastrically with the ritonavir diluent (i.e., a 47% alcoholic solution) in the absence of ritonavir (placebo), and 3) treated intragastrically with 50 or 150 mg/kg.

`CCN(CC)CCCC(C)Nc1ccnc2cc(Cl)ccc12` (stereo not shown) [CQ, Chloroquine]: in the experiment on primary HIV-1 isolates, the “inhibitory effect of CQ alone” value is reported as “minimal”.
Turning to `CC(C)(C)NC(=O)[C@@H]1CN(Cc2cccnc2)CCN1C[C@@H](O)C[C@@H](Cc1ccccc1)C(=O)N[C@H]1c2ccccc2C[C@H]1O` [IDV, indinavir], the “p24 levels in supernatants” value in the experiment on UG3 (HIV-1 Clade A) (100 nM IDV, 5 days after infection) is “typical peak in the p24 levels in supernatants”. The “IDV concentration at which inhibitory effects were visible” value in the experiment with UG3 (HIV-1 Clade A) is 1 µM. Also, in the experiment on HIV-1 IIIB, the EC50 was roughly 10 nM. Moreover, the “sum of FICs” value in experiment [1] (CQ+PI combination, W2 strain, ≦0.5 indicates synergism) is no more than 0.5; in experiment [2] (CQ+PI combination, 3D7 strain), greater than 0.5. The “response to CQ in CQ-resistant P. falciparum” value in experiment [1] (IDV (5 μM) with CQ, 48 h) was “restored the response to CQ”. In addition, in experiment [2] (IDV (5 μM) with CQ, compared with CQ-resistant strains), the “effects of IDV on CQ-response” value is given as “less dramatic”. Moreover, the “P. falciparum growth (LDH activity)” value in experiment [3] is recorded as “dose-dependently inhibited P. falciparum growth”.
As to `CC(C)c1nc(CN(C)C(=O)N[C@H](C(=O)N[C@@H](Cc2ccccc2)C[C@H](O)[C@H](Cc2ccccc2)NC(=O)OCc2cncs2)C(C)C)cs1` [RTV, ritonavir], in experiment [4], the “response to CQ in CQ-resistant P. falciparum” value is reported as “restored the response to CQ”. Besides, the “P. falciparum growth (LDH activity)” value in experiment [3] is listed as “dose-dependently inhibited P. falciparum growth”. In addition, in the experiment on P. berghei (Balb/c mice), the “parasite multiplication in mice” value is listed as “dose-dependently retarded parasite multiplication in mice”. Moreover, in the experiment with P. berghei (Kaplan-Mayer curves), the “survival of treated mice” value was “increased survival of treated mice in a significant manner”.
